≈ marks a conversion by molar mass, not a printed value.
Key:
S. aureus MRSA4 = test: MIC against S. aureus MRSA4 in vitro (broth dilution); type: cell-based; conditions: Staphylococcus aureus; S. aureus MRSA4 in vitro; SAR series (Fig. 2)
Text: We synthesized 50 compounds (Fig. 2, Supplementary Table 1) using the Steglich esterification scheme[31] in the presence of a […], 1-ethyl-3-(3-dimethylaminopropyl)-carbodiimide hydrochloride (Fig. 1b). Antimicrobial activities of the compounds were examined by determining the MIC against S. aureus MRSA4 in vitro; therapeutic activities were examined using a systemic infection model of silkworms infected with S. aureus MSSA1. […]
Antimicrobial activity was assessed by determining the MIC by broth dilution assay according to our previous reports[21],[35],[36] as per the Clinical and Laboratory Standards Institute[37]. Briefly, serial dilutions of compound 5, compound 7, and positive controls were prepared in cation-adjusted Mueller-Hinton Broth (MHB, Difco, Franklin Lakes, NJ, USA), 100 µl of which was dispensed into each well of a round-bottomed 96-well plate. The final concentrations in the well ranged from 128 µg/ml to 0.0625 µg/ml. Bacteria were grown at 37 °C overnight on either Luria Bertani (tryptone 10 g/l, yeast extract 5 g/l, NaCl 10 g/l) or Tryptic Soy Broth (TSB, Difco) agar plates or sheep blood agar plates (Eiken Chemical Co. Ltd., Tokyo, Japan). Bacterial inoculum was prepared by direct suspension of the colonies in 0.9% saline, and adjusted to obtain a turbidity equivalent to a 0.5 McFarland standard using a spectrophotometer UV-1280 (Shimadzu Corp., Kyoto, Japan). The suspension was then diluted 1:20 in cation-adjusted MHB (Difco), and 10 µl of it was inoculated into each well of previously prepared 96-well plates containing compounds to obtain approximately 5 × 10^4 colony forming units/well and incubated at 37 °C for 20 h. […] Vancomycin (Wako Pure Chemicals) or norfloxacin (Sigma Aldrich, St Louis, MO, USA) were used as positive controls. Each plate contained a growth control well and a vehicle control well. The MIC was determined as the minimum concentration that inhibited the growth of the bacteria.

S. aureus MSSA1 = test: Silkworm systemic infection model, therapeutic activity (ED50); type: in vivo, Staphylococcus aureus; conditions: for ED50: Staphylococcus aureus, silkworms infected with S. aureus MSSA1 (Fig. 2), read-out: ED50
Text: We synthesized 50 compounds (Fig. 2, Supplementary Table 1) using the Steglich esterification scheme[31] in the presence of a […], 1-ethyl-3-(3-dimethylaminopropyl)-carbodiimide hydrochloride (Fig. 1b). Antimicrobial activities of the compounds were examined by determining the MIC against S. aureus MRSA4 in vitro; therapeutic activities were examined using a systemic infection model of silkworms infected with S. aureus MSSA1.
A total of 108,373 compounds from the chemical library of the Drug Discovery Initiative at the University of Tokyo were screened for antibacterial activity against S. aureus strain MRSA4 as previously reported. Those compounds that inhibited the growth of MRSA4 at 100 µM were further evaluated for their therapeutic effects in silkworms infected with S. aureus strain MSSA1 according to previously reported studies[17],[21].

| MIC (S. aureus MRSA4) | SMILES | ED50 (S. aureus MSSA1) | survival of the S. aureus-infected silkworms (S. aureus MSSA1; S. aureus-infected silkworms) |
| --- | --- | --- | --- |
| 3.1 µg/mL (≈ 10.4 µM) | O=C(OCc1cc(F)cc(F)c1)c1ccc([N+](=O)[O-])s1 [compound 46] | 81 mg/kg |  |
| > 400 µg/mL | O=C(OCc1cc(Cl)cc(Cl)c1)c1csc([N+](=O)[O-])c1 [compound 36] |  |  |
| > 200 µg/mL | Cc1ccc(C(=O)OCc2cc(Cl)cc(Cl)c2)s1 [compound 31] |  |  |
| > 400 µg/mL | CC(=O)c1ccc(C(=O)OCc2cc(Cl)cc(Cl)c2)s1 [compound 34] |  |  |
| > 200 µg/mL | O=C(OCc1cc(Cl)cc(Cl)c1)c1cc(Br)c(Br)s1 [compound 28] | > 100 mg/kg |  |
| 1.6 µg/mL (≈ 4.85 µM) | Cc1ccc(Cl)c(COC(=O)c2ccc([N+](=O)[O-])s2)c1F [compound 45] | 82 mg/kg |  |
| > 200 µg/mL | O=C(OCc1cc(Cl)cc(Cl)c1)c1ccc(Br)s1 [compound 27] |  |  |
| > 400 µg/mL | CS(=O)(=O)c1ccc(COC(=O)c2ccc([N+](=O)[O-])s2)cc1 [compound 51] |  |  |
| 25 µg/mL (≈ 81.6 µM) | CN(C)c1cccc(COC(=O)c2ccc([N+](=O)[O-])s2)c1 [compound 55] |  |  |
| 3.1 µg/mL (≈ 11.2 µM) | Cc1ccc(COC(=O)c2ccc([N+](=O)[O-])s2)cc1 [compound 47] | 33 mg/kg |  |
| > 400 µg/mL | O=C(OCc1cc(Cl)cc(Cl)c1)c1cccc([N+](=O)[O-])n1 [compound 33] |  |  |
| > 200 µg/mL | O=C(OCc1cc(Cl)cc(Cl)c1)c1ccc(Cl)s1 [compound 26] |  |  |
| 6.3 µg/mL (≈ 20.4 µM) | CSc1ccc(COC(=O)c2ccc([N+](=O)[O-])s2)cc1 [compound 54] | 43 mg/kg |  |
| 3.1 µg/mL (≈ 9.33 µM) | O=C(OCc1cc(Cl)ccc1Cl)c1ccc([N+](=O)[O-])s1 [compound 43] | > 180 mg/kg |  |
| 1.6 µg/mL (≈ 4.62 µM) | CC(OC(=O)c1ccc([N+](=O)[O-])s1)c1ccc(Cl)cc1Cl (centres unmarked) [compound 40] | > 160 mg/kg |  |
| 1.6 µg/mL (≈ 4.36 µM) | O=C(OCc1c(Cl)cc(Cl)cc1Cl)c1ccc([N+](=O)[O-])s1 [compound 41] | 32 mg/kg |  |
| 25 µg/mL (≈ 75.5 µM) | O=C(NCc1cc(Cl)cc(Cl)c1)c1ccc([N+](=O)[O-])s1 [compound 52] | > 190 mg/kg |  |
| 6.3 µg/mL (≈ 18.1 µM) | O=C(OCc1ccc(OC(F)(F)F)cc1)c1ccc([N+](=O)[O-])s1 [compound 57] |  |  |
| 3.1 µg/mL (≈ 9.07 µM) | O=C(OCc1cc2c(cc1Cl)OCO2)c1ccc([N+](=O)[O-])s1 [compound 50] | > 240 mg/kg |  |
| 3.1 µg/mL (≈ 9.33 µM) | O=C(OCc1ccc(Cl)cc1Cl)c1ccc([N+](=O)[O-])s1 [compound 39] | 28 mg/kg |  |
| > 400 µg/mL | COc1cc(COC(=O)c2ccc([N+](=O)[O-])s2)cc(OC)c1 [compound 49] |  |  |
| 6.3 µg/mL (≈ 20 µM) | O=C(OCc1c(F)cccc1Cl)c1ccc([N+](=O)[O-])s1 [compound 44] | > 180 mg/kg |  |
| 6.3 µg/mL (≈ 21.6 µM) | Cc1cc(C)cc(COC(=O)c2ccc([N+](=O)[O-])s2)c1 [compound 53] | > 210 mg/kg |  |
| 3.1 µg/mL (≈ 10.4 µM) | O=C(OCc1ccc(Cl)cc1)c1ccc([N+](=O)[O-])s1 [compound 48] | 58 mg/kg |  |
| 1.6 µg/mL (≈ 5.06 µM) | O=C(OCc1cc(Cl)cc(Cl)c1)c1cc([N+](=O)[O-])n[nH]1 [compound 30] | > 210 mg/kg |  |
| 3.1 µg/mL (≈ 9.33 µM) | O=C(OCc1c(Cl)cccc1Cl)c1ccc([N+](=O)[O-])s1 [compound 42] | > 180 mg/kg |  |

The next lines start with the molecule.

| SMILES | MIC (S. aureus MRSA4) | ED50 (S. aureus MSSA1) | survival of the S. aureus-infected silkworms (S. aureus MSSA1; S. aureus-infected silkworms) |
| --- | --- | --- | --- |
| O=C(OCc1ccccc1)c1ccc([N+](=O)[O-])o1 [compound 4] | 12.5 µg/mL (≈ 50.6 µM) | > 95 mg/kg |  |
| O=C(NCc1cccc(Cl)c1)c1ccc([N+](=O)[O-])s1 [compound 11] | 6.3 µg/mL (≈ 21.2 µM) | > 170 mg/kg |  |
| O=C(NCc1cccc(Cl)c1)c1ccc([N+](=O)[O-])o1 [compound 10] | 3.1 µg/mL (≈ 11 µM) | > 105 mg/kg |  |
| O=C(OCc1cc(Br)cc(Br)c1)c1ccc([N+](=O)[O-])s1 [compound 21] | 6.3 µg/mL (≈ 15 µM) | > 100 mg/kg |  |
| O=C(COc1cc(Cl)cc(Cl)c1)c1ccc([N+](=O)[O-])o1 [compound 15] | 50 µg/mL (≈ 158 µM) | > 105 mg/kg |  |
| O=C(OCc1cc(Cl)cc(Cl)c1)c1ccco1 [compound 2] | > 200 µg/mL |  |  |
| CN(Cc1ccccc1)C(=O)c1ccc([N+](=O)[O-])s1 [compound 14] | 50 µg/mL (≈ 181 µM) | > 210 mg/kg |  |
| O=C(OCc1cc(F)cc(Cl)c1)c1ccc([N+](=O)[O-])s1 [compound 20] | 0.4 µg/mL (≈ 1.27 µM) | 17 mg/kg |  |
| O=Cc1ccc(C(=O)OCc2cc(Cl)cc(Cl)c2)s1 [compound 23] | 25 µg/mL (≈ 79.3 µM) | > 100 mg/kg |  |
| O=C(OCc1cccc(F)c1)c1ccc([N+](=O)[O-])s1 [compound 19] | 0.4 µg/mL (≈ 1.42 µM) | > 87 mg/kg |  |
| O=C(COc1cc(Cl)cc(Cl)c1)c1ccc([N+](=O)[O-])s1 [compound 16] | 50 µg/mL (≈ 151 µM) | > 220 mg/kg |  |
| O=Cc1ccc(C(=O)OCc2cc(F)cc(Cl)c2)s1 [compound 25] | 50 µg/mL (≈ 167 µM) | > 100 mg/kg |  |
| O=C(OCc1ccc2ccccc2c1)c1ccc([N+](=O)[O-])o1 [compound 8] | > 200 µg/mL | > 100 mg/kg |  |
| O=Cc1ccc(C(=O)OCc2cc(Br)cc(Br)c2)s1 [compound 24] | 25 µg/mL (≈ 61.9 µM) | > 100 mg/kg |  |
| O=C(OCc1cccc(Br)c1)c1ccc([N+](=O)[O-])o1 [compound 17] | 12.5 µg/mL (≈ 38.3 µM) | > 220 mg/kg |  |
| O=C(OCc1c(Br)c(Br)c(Br)c(Br)c1Br)c1ccc([N+](=O)[O-])s1 [compound 22] | > 200 µg/mL |  |  |
| O=C(OCc1cc(Cl)cc(Cl)c1)c1ccc([N+](=O)[O-])o1 [compound 1] | 12.5 µg/mL (≈ 39.5 µM) | > 95 mg/kg | slightly prolonged the survival |
| O=C(OCc1cccc(Cl)c1)c1ccc([N+](=O)[O-])s1 [compound 6] | 0.5 µg/mL (≈ 1.68 µM) | 65 mg/kg |  |
| O=C(OCc1cccc(Br)c1)c1ccc([N+](=O)[O-])s1 [compound 18] | 1.6 µg/mL (≈ 4.68 µM) | 53 mg/kg |  |
| O=C(OCc1cccc(Cl)c1)c1ccc([N+](=O)[O-])o1 [compound 3] | 12.5 µg/mL (≈ 44.4 µM) | > 87 mg/kg |  |
| O=C(OCc1ccc2ccccc2c1)c1ccc([N+](=O)[O-])s1 [compound 9] | 1.6 µg/mL (≈ 5.11 µM) | > 105 mg/kg |  |

— article PMC5785531, “Pharmacokinetic parameters explain the therapeutic activity of antimicrobial agents in a silkworm infection model” (Scientific Reports, 2018)
